Test results taken from US20210100905A1, “APPLICATION OF COMPOUND OR TRADITIONAL CHINESE MEDICINE EXTRACT IN PREPARATION OF NUCLEIC ACID DELIVERY AGENT, AND RELATED PRODUCTS” (INSTITUTE OF BASIC MEDICAL SCIENCES CHINESE ACADEMY OF …, priority 2018, published 2021).
Entries after “also recorded” stand apart in the source; their conditions may differ.

How the values were obtained:
[1] = In vivo delivery of single-stranded sRNA by single lipid, gavage (Example 11); set-up: species or system C57 mice; settings: 10 μL lipid, sRNA 1 nmol each, 12 hours; for delivery of sRNA single-stranded nucleic acid into mouse blood: FIGS. 108, 112-115, oral (gavage), heating method, vs POPC and Lipofectamine RNAiMAX
Procedure: 1. Experimental animals: C57 mice, male, approximately 6 weeks old.
2. Manufacture of lipid mixture: the prepration was conducted on the basis of a dose of 10 μ1 lipid-1 nmol sRNA per mouse as follows: dissolved 1 nmol of each sRNA in 500 μl DEPC water, added 10 μl of the corresponding lipid, pipette to mix thoroughly, and then naturally cooled down after water bath for 15 min at 90° C., and administered via gavage.
1) Tissue sampling and extraction of RNA: 6 hours after gavage in mice, took 500 μl of blood from the eyeball, added 1.5 ml Trizol Reagent LS to thoroughly mix and lyse, added 3 ml Trizol Reagent (purchased from Invitrogen) to the tissue samples and homogenized until complete lysis. Tissues sampled: live/stomach/small intestine.
2) Reverse transcription of sRNA to cDNA: Reverse Transcription Kit (High-Capacity cDNA Reverse Transcription Kits, Applied Biosystems, cat. no. 4368813), was used to reverse transcribe the total RNA to cDNA, and the reverse system was as follows: template RNA (150 ng/μL) 10 μL, 10× RT buffer, 2.0 μL, 25× dNTP Mix (100 mM) 0.8 μL, random primers 2.0 μL, the Multi Scribe™ reverse Transcriptase 1.0 μL, RNase inhibitor 1.0 μL, nuclease-free H2O 3.2 μL. After a brief centrifugation, the reaction was loaded in a PCR reactor. The reaction conditions were as follows: (1) 25° C., 10 min; (2) 37° C., 120 min; (3) 85° C., 5 min; (4) 4° C., termination of the reaction. After the reaction, 20 μL RNase-free ddH2O was added to make up the final volume to 40 μL.
LightCycler 480 fluorescence quantitative PCR instrumentwas used, and the PCR reaction conditions were: 95° C. , 5 min for pre-denaturation, followed by the PCR amplification cycle: (1) 95° C., 10 s; (2) 55° C., 10 s; (3) 72° C., 20 s; a total of 40 cycles; 40° C. for 10 s in the end to cool down. The forward primer and reverse primer of the amplification reaction were designed and synthesized by Beijing Qing Ke New Industrial Biotechnology Co., Ltd. (U6 F primer: GCGCGTCGTGAAGCGTTC (SEQ ID NO: 23), U6 R primer: GTGCAGGGTCCGAGGT (SEQ ID NO: 24)).
3) The relative expression amount was calculated by the 2-ΔCt method.
5) Treatment group of single lipid and nucleic acid mixture: a mixture of 10 μL of single lipid (No. 41) with single-stranded sRNA mixure solution (PGY-sRNA-23, PGY-sRNA-26 and PGY-sRNA-32, 1 nmol each) was treated by heating method and then given to mice via intragastric administration.
2. 12 hours after intragastric administration, the blood was taken from the eyeball, and various tissues (liver/stomach/small intestine) was sampled. TRIzol was used for full lysis and the RNA was extracted to detect the amount of entry.

A549 cells = assay: Digital PCR (ddPCR) detection of the efficiency of nucleic acid delivery by lipid; type: cell-based, human; settings: boiling or reverse evaporation method; samples after 6 hours (No. 39: reverse evaporation, 6 and 12 hours)
Text: 2.1 Experimental materials: A549 cells were purchased from the Cell Center of the Institute of Basic Medical Sciences, Chinese Academy of Medical Sciences, TRIzol lysis buffer was purchased from Sigma, High capacity cRNA Reverse Transcription Kit was purchased from ABI, USA, and the digital PCR related reagents were purchased from Bio-Rad USA.
(§1) 2.2 Experimental method: the total cellular RNA was collected and extracted by TRIzol lysis buffer according to the above methods, and reverse transcribed to cDNA using High capacity cRNA Reverse Transcription Kit, and the cDNA from different groups was subject to digital PCR reaction. Refering to the QX200 Droplet Reader and QuantaSoft Software manual for the protocols, the results were analyzed using QuantaSoft software.
as §1, with “method:” for “method: the”, “total” for “total cellular”, “method,” for “methods,”, “subjected” for “subject”, “Refer” for “Refering”, “protocols;” for “protocols,”
(§2) 2.2 Experimental method: Total RNA was collected and extracted by TRIzol lysis buffer according to the above method, and reverse transcribed to cDNA using TaqMan™ MicroRNA Reverse Transcription KitHigh, and the cDNA from different groups was subjected to digital PCR reaction. Refer to the QX200 Droplet Reader and QuantaSoft Software manual for the protocols; the results were analyzed using QuantaSoft software.
as §2, with “reversed” for “reverse transcribed”, “High capacity cRNA” for “TaqMan™ MicroRNA”, “Kit,” for “KitHigh,”

Compound	delivery of sRNA single-stranded nucleic acid into mouse blood [1]	delivery of HJT-sRNA-m7 dsRNA into A549 cells (ddPCR) (A549 cells)	delivery of sRNA single-stranded nucleic acid into mouse stomach ([1]; FIG. 109, gavage)	delivery of sRNA single-stranded nucleic acid into mouse small intestine ([1]; FIG. 110, gavage)	delivery of sRNA single-stranded nucleic acid into mouse liver ([1]; FIG. 111, gavage)
CCCCCCCC/C=C\CCCCCCCCCCCCCC(=O)O[C@H](COC(=O)CCCCCCCCCCCCCC)COP(=O)(O)OCCN [No. 64, 1-pentadecanoyl-2-nervonoyl-sn-glycero-3-phospho-ethanolamine]	could effectively deliver sRNA single-stranded nucleic acid into mouse blood via oral administration; also recorded: the delivery effect was better than POPC and Lipofectamine RNAiMAX				
CCCCCCCCCCCCCCCCCCC[C@@H](O)[C@@H](N)CO [No. 41, Sphinganine (d22:0)]	could effectively deliver sRNA single-stranded nucleic acid into the mouse blood via oral administration; also recorded: the delivery effect was better than POPC and Lipofectamine RNAiMAX	could effectively deliver HJT-sRNA-m7 dsRNA into A549 cells; also recorded: the boiling method had better effects than reverse evaporation method	could effectively deliver sRNA single-stranded nucleic acid into the mouse stomach via oral administration to protect sRNA from degradation	could effectively deliver sRNA single-stranded nucleic acid into the mouse small intestine via oral administration to protect sRNA from degradation	could effectively deliver sRNA single-stranded nucleic acid into the mouse liver via oral administration to protect sRNA from degradation
CCCCCCCC/C=C\CCCCCCCCCCCC(=O)O[C@H](COC(=O)CCCCCCCCCCCCCCC)COP(=O)(O)OCCN [No. 40, (2-aminoethoxy) [(2R)-2-[(13Z)-docos-13-enoyloxy]-3-(hexadecanoyloxy)propoxy] phosphinic acid]	could effectively deliver sRNA single-stranded nucleic acid into mouse blood via oral administration; also recorded: the delivery effect was better than POPC and Lipofectamine RNAiMAX	could effectively deliver HJT-sRNA-m7 dsRNA into A549 cells			
CCCCCC/C=C\CCCCCCCC(=O)O[C@H](COC(=O)CCCCCCCCCCCCCCC)COP(=O)(O)OCCN [No. 38, (2-aminoethoxy) [(2R)-2-[(9Z)-hexadec-9-enoyloxy]-3-(hexadecanoyloxy)propoxy] phosphinic acid]	could effectively deliver sRNA single-stranded nucleic acid into mouse blood via oral administration; also recorded: the delivery effect was better than POPC and Lipofectamine RNAiMAX	could effectively deliver HJT-sRNA-m7 dsRNA into A549 cells			
